The source of these data is ChEMBL document CHEMBL1155850, “Synthesis and biological evaluation of a focused library of beauveriolides” (Bioorg Med Chem Lett, 2008).

Usually pIC50 stands for the negative decadic logarithm of the IC50, by convention in mol/L. A word on the inhibition: it is the change of the read-out against control, counted positive when it falls.

For assay [1], the system named is Macrophage. Kind of assay: Inhibition of cholesterol ester synthesis in mouse macrophages assessed as lipid droplet accumulation. Type of assay: functional, cell-based.
The target of assay [2] is T1, Sterol O-acyltransferase 1 (Mus musculus) (UniProt Q61263).
T1 sequence (whole entry): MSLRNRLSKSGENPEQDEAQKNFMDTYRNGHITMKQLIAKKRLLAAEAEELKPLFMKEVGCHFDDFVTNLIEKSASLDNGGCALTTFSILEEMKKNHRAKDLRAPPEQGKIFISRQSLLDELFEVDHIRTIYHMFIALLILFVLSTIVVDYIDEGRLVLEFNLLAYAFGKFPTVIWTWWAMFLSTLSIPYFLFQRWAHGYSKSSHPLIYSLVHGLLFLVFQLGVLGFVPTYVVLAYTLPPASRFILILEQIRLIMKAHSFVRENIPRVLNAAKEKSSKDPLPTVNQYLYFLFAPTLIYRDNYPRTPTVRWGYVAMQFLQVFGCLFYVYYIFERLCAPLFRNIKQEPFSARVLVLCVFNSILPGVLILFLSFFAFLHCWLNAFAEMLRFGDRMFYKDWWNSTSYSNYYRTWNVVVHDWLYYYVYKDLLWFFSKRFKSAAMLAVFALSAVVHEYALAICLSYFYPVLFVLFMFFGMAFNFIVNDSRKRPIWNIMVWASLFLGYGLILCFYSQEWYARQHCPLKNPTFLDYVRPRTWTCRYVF
Kind of assay: Inhibition of ACAT in mouse liver microsomes at 20 uM. As to conditions: Microsome. (In general: Liver microsomes are vesicles of endoplasmic reticulum, rich in cytochrome P450 enzymes.)

pIC50: −log10 of the molar value. Where only a bound is given, the exact number is not on record here.

Consider `CCCC[C@H](C)[C@@H]1CC(=O)N[C@@H](Cc2ccccc2)C(=O)N[C@@H](CC(N)=O)C(=O)N[C@H](CC(C)C)C(=O)O1`, for which the pIC50 in assay [1] is less than 4.70. The compound also returned an inhibition in assay [2] of 43%.

For `CCCC[C@H](C)[C@@H]1CC(=O)N[C@@H](Cc2ccccc2)C(=O)N[C@H](C)C(=O)N[C@H](Cc2ccccc2)C(=O)O1`, the pIC50 in assay [1] is 5.00. In assay [2], this compound returned an inhibition of 94%.

On to `CCCC[C@H](C)[C@@H]1CC(=O)N[C@@H](C(c2ccccc2)c2ccccc2)C(=O)N[C@@H](C)C(=O)N[C@H]([C@H](C)CC)C(=O)O1`, for which the negative-log IC50 (pIC50) in assay [1] was 7.70. The compound also showed an inhibition in assay [2] of 88%.

Consider `CCCC[C@H](C)[C@@H]1CC(=O)N[C@@H](Cc2ccccc2)C(=O)N[C@@H](C)C(=O)N[C@H]([C@H](C)CC)C(=O)O1`, for which the pIC50 in assay [1] was 5.77. In assay [2], this compound showed an inhibition of 80%.

For `CCCC[C@H](C)[C@@H]1CC(=O)N[C@@H](C(c2ccccc2)c2ccccc2)C(=O)N[C@@H](C)C(=O)N[C@H](CC(C)C)C(=O)O1`, in assay [1], the negative logarithm of the IC50 (pIC50) is 7.10. In assay [2], the inhibition is 83%.

`CCCC[C@H](C)[C@@H]1CC(=O)N[C@@H](Cc2ccccc2)C(=O)N[C@@H](CC(N)=O)C(=O)N[C@H](Cc2ccccc2)C(=O)O1`: in assay [1], the pIC50 is less than 4.70. This compound displayed an inhibition in assay [2] of 11%.

For `CCCC[C@H](C)[C@@H]1CC(=O)N[C@H](Cc2ccccc2)C(=O)N[C@H](C)C(=O)N[C@H](CC(C)C)C(=O)O1`, the negative-log IC50 (pIC50) in assay [1] is 6.00. The compound further registered an inhibition in assay [2] of 96%.

For `CCCC[C@H](C)[C@@H]1CC(=O)N[C@@H](Cc2ccccc2)C(=O)N[C@@H](CO)C(=O)N[C@H](CC(C)C)C(=O)O1`, the negative logarithm of the IC50 (pIC50) in assay [1] was 4.91. Also, the inhibition in assay [2] was 93%.

With `CCCC[C@H](C)[C@@H]1CC(=O)N[C@@H](C(c2ccccc2)c2ccccc2)C(=O)N[C@H](C)C(=O)N[C@H](CC(C)C)C(=O)O1`, in assay [1], the pIC50 was 7.15. In addition, the inhibition in assay [2] amounted to 93%.

In the case of `CCCC[C@H](C)[C@@H]1CC(=O)N[C@H](Cc2ccccc2)C(=O)N[C@@H](C)C(=O)N[C@H]([C@H](C)CC)C(=O)O1`, the negative logarithm of the IC50 (pIC50) in assay [1] is less than 4.70. The compound further had an inhibition in assay [2] of 70%.

Turning to `CCCC[C@H](C)[C@@H]1CC(=O)N[C@@H](C(c2ccccc2)c2ccccc2)C(=O)N[C@H](C)C(=O)N[C@H]([C@@H](C)CC)C(=O)O1`, in assay [1], the negative logarithm of the IC50 (pIC50) was 7.70. Moreover, the inhibition in assay [2] turned out to be 91%.

With `CCCC[C@H](C)[C@@H]1CC(=O)N[C@H](Cc2ccccc2)C(=O)N[C@@H](CC(N)=O)C(=O)N[C@H](C[C@@H](C)CC)C(=O)O1`, the pIC50 in assay [1] is less than 4.70.

Turning to `CCCC[C@H](C)[C@@H]1CC(=O)N[C@H](Cc2ccccc2)C(=O)N[C@@H](CC(N)=O)C(=O)N[C@H](Cc2ccccc2)C(=O)O1`, the negative logarithm of the IC50 (pIC50) in assay [1] was less than 4.70. Besides, the inhibition in assay [2] is 8%.

`CCCC[C@H](C)[C@@H]1CC(=O)N[C@@H](Cc2ccccc2)C(=O)N[C@H](C)C(=O)N[C@H](CC(C)C)C(=O)O1`: the pIC50 in assay [1] was 6.32. Moreover, the inhibition in assay [2] was determined as 98%.

For `CCCC[C@H](C)[C@@H]1CC(=O)N[C@@H](Cc2ccccc2)C(=O)N[C@H](C)C(=O)N[C@H]([C@@H](C)CC)C(=O)O1`, in assay [1], the negative-log IC50 (pIC50) was 6.10. Besides, the inhibition in assay [2] is 94%.

On to `CCCC[C@H](C)[C@@H]1CC(=O)N[C@H](Cc2ccccc2)C(=O)N[C@@H](C)C(=O)N[C@H](Cc2ccccc2)C(=O)O1`, for which the negative-log IC50 (pIC50) in assay [1] is less than 4.70. In addition, the inhibition in assay [2] is 47%.

As for `CCCC[C@H](C)[C@@H]1CC(=O)N[C@H](Cc2ccccc2)C(=O)N[C@@H](CC(N)=O)C(=O)N[C@H](CC(C)C)C(=O)O1`, the pIC50 in assay [1] was less than 4.70. Moreover, the inhibition in assay [2] worked out at 4%.

For the compound `CCCC[C@H](C)[C@@H]1CC(=O)N[C@H](Cc2ccccc2)C(=O)N[C@@H](C)C(=O)N[C@H](CC(C)C)C(=O)O1`, the negative logarithm of the IC50 (pIC50) in assay [1] was less than 4.70. Besides, in assay [2], the inhibition amounted to 87%.

Turning to `CCCC[C@H](C)[C@@H]1CC(=O)N[C@H](Cc2ccccc2)C(=O)N[C@H](C)C(=O)N[C@H]([C@H](C)CC)C(=O)O1`, the pIC50 in assay [1] is 5.60. The inhibition in assay [2] was 91%.

Turning to `CCCC[C@H](C)[C@@H]1CC(=O)N[C@@H](C(c2ccccc2)c2ccccc2)C(=O)N[C@@H](CC(N)=O)C(=O)N[C@H](Cc2ccccc2)C(=O)O1`, in assay [1], the pIC50 was 6.05. This compound yielded an inhibition in assay [2] of 97%.

As for `CCCC[C@H](C)[C@@H]1CC(=O)N[C@@H](C(c2ccccc2)c2ccccc2)C(=O)N[C@@H](CO)C(=O)N[C@H](Cc2ccccc2)C(=O)O1`, the pIC50 in assay [1] was 6.80. Moreover, the inhibition in assay [2] stood at 96%.

For the compound `CCCC[C@H](C)[C@@H]1CC(=O)N[C@@H](C(c2ccccc2)c2ccccc2)C(=O)N[C@@H](CO)C(=O)N[C@H](CC(C)C)C(=O)O1`, the pIC50 in assay [1] was less than 4.70. Further, the inhibition in assay [2] amounted to 70%.

As for `CCCC[C@H](C)[C@@H]1CC(=O)N[C@@H](Cc2ccccc2)C(=O)N[C@@H](C)C(=O)N[C@H](Cc2ccccc2)C(=O)O1`, the pIC50 in assay [1] is 5.12. Besides, the inhibition in assay [2] amounted to 76%.

As for `CCCC[C@H](C)[C@@H]1CC(=O)N[C@@H](Cc2ccccc2)C(=O)N[C@@H](CO)C(=O)N[C@H](Cc2ccccc2)C(=O)O1`, the negative logarithm of the IC50 (pIC50) in assay [1] was 5.03. The inhibition in assay [2] is 79%.

On to `CCCC[C@H](C)[C@@H]1CC(=O)N[C@@H](C(c2ccccc2)c2ccccc2)C(=O)N[C@@H](C)C(=O)N[C@H](Cc2ccccc2)C(=O)O1`, for which the pIC50 in assay [1] was 7.10. In assay [2], this compound came in with an inhibition of 71%.

As to `CCCC[C@H](C)[C@@H]1CC(=O)N[C@H](Cc2ccccc2)C(=O)N[C@@H](CO)C(=O)N[C@H](CC(C)C)C(=O)O1`, the negative-log IC50 (pIC50) in assay [1] was less than 4.70. The compound further registered an inhibition in assay [2] of 40%.

For the compound `CCCC[C@H](C)[C@@H]1CC(=O)N[C@H](Cc2ccccc2)C(=O)N[C@@H](C)C(=O)N[C@H]([C@@H](C)CC)C(=O)O1`, the negative-log IC50 (pIC50) in assay [1] is less than 4.70. In addition, the inhibition in assay [2] amounted to 20%.

Regarding `CCCC[C@H](C)[C@@H]1CC(=O)N[C@@H](C(c2ccccc2)c2ccccc2)C(=O)N[C@@H](CC(N)=O)C(=O)N[C@H](CC(C)C)C(=O)O1`, the pIC50 in assay [1] was 5.70. Besides, the inhibition in assay [2] worked out at 98%.

As to `CCCC[C@H](C)[C@@H]1CC(=O)N[C@@H](C(c2ccccc2)c2ccccc2)C(=O)N[C@H](C)C(=O)N[C@H]([C@H](C)CC)C(=O)O1`, the pIC50 in assay [1] is 7.70. For the same compound, the inhibition in assay [2] is 97%.

As for `CCCC[C@H](C)[C@@H]1CC(=O)N[C@H](Cc2ccccc2)C(=O)N[C@@H](CO)C(=O)N[C@H](Cc2ccccc2)C(=O)O1`, the pIC50 in assay [1] was 6.96. Besides, the inhibition in assay [2] worked out at 95%.

As to `CCCC[C@H](C)[C@@H]1CC(=O)N[C@@H](Cc2ccccc2)C(=O)N[C@@H](C)C(=O)N[C@H](CC(C)C)C(=O)O1` [BEAUVERIOLIDE I], the pIC50 in assay [1] is 6.22. In addition, the inhibition in assay [2] stood at 95%.

For `CCCC[C@H](C)[C@@H]1CC(=O)N[C@H](Cc2ccccc2)C(=O)N[C@H](C)C(=O)N[C@H]([C@@H](C)CC)C(=O)O1`, the negative-log IC50 (pIC50) in assay [1] was 6.05. In assay [2], this compound had an inhibition of 99%.

Take `CCCC[C@H](C)[C@@H]1CC(=O)N[C@@H](C(c2ccccc2)c2ccccc2)C(=O)N[C@@H](C)C(=O)N[C@H]([C@@H](C)CC)C(=O)O1`: the pIC50 in assay [1] was 7.40. Moreover, the inhibition in assay [2] was 95%.

As for `CCCC[C@H](C)[C@@H]1CC(=O)N[C@H](Cc2ccccc2)C(=O)N[C@H](C)C(=O)N[C@H](Cc2ccccc2)C(=O)O1`, the negative logarithm of the IC50 (pIC50) in assay [1] was 6.52. In assay [2], the inhibition came to 60%.

Turning to `CCCC[C@H](C)[C@@H]1CC(=O)N[C@@H](C(c2ccccc2)c2ccccc2)C(=O)N[C@H](C)C(=O)N[C@H](Cc2ccccc2)C(=O)O1`, in assay [1], the pIC50 was 6.62. The inhibition in assay [2] turned out to be 75%.

In the case of `CCCC[C@H](C)[C@@H]1CC(=O)N[C@@H](Cc2ccccc2)C(=O)N[C@@H](C)C(=O)N[C@H]([C@@H](C)CC)C(=O)O1` [BEAUVERIOLIDE III], the negative-log IC50 (pIC50) in assay [1] was 6.40. Also, the inhibition in assay [2] came out at 91%.

As to `CCCC[C@H](C)[C@@H]1CC(=O)N[C@@H](Cc2ccccc2)C(=O)N[C@H](C)C(=O)N[C@H]([C@H](C)CC)C(=O)O1`, in assay [1], the negative-log IC50 (pIC50) is 6.19. In assay [2], this compound displayed an inhibition of 96%.
